The target of data set [1] is SARS-CoV-2 HR1 peptide (SARS-CoV-2).
Data set [2] has as its system SARS-CoV-2 PsV. Particulars: 48 h.
In data set [3] the test system is pseudotyped SARS-CoV-2 VOCs. Particulars: 48 h.
Data set [4] concerns Pseudotyped WIV1-CoV. The note with it: 48 h.
Data set [5] in a line: in vitro. The note with it: human, Caco-2, Calu-3, RD and Huh-7 cells.
The conditions of data set [6]: rhesus monkey, in vivo, iv, 10 mg/kg.
The test system of data set [7] is Pseudotyped SARS-CoV-2. The note with it: 48 h.
In data set [8] the test system is live HCoV-229E. The note with it: 8 h.
Data set [9] can be described thus: in vivo. The note with it: rhesus monkey, iv, 10 mg/kg.
In data set [10] the target is HCoV-NL63 S protein (Human coronavirus NL63, UniProt Q6Q1S2). Description: cell-based.
The subject of data set [11] is Pseudotyped HCoV-OC43. The note with it: 48 h.
Data set [12] relates to trypsin.
The target in data set [13] is MERS-CoV S protein (Middle East respiratory syndrome-related coronavirus, UniProt K9N5Q8). Nature of the data set: cell-based.
Data set [14] has as its target T1, SARS-CoV-2 S protein (Severe acute respiratory syndrome coronavirus 2, UniProt P0DTC2). Nature of the data set: cell-based. The note with it: IC50 against Cell-Cell Fusion Mediated by S Proteins of CoVs.
In data set [15] the test system is Pseudotyped HCoV-229E. Particulars: 48 h.
Data set [16] deals with Caco-2, Calu-3, RD and Huh-7 cells. Particulars: 24 h.
In data set [17] the target is SARS-CoV S protein (Severe acute respiratory syndrome coronavirus, UniProt P59594). Description: cell-based.
Data set [18] deals with HCoV-OC43 S protein (Human coronavirus OC43, UniProt P36334). Description: cell-based.
Data set [19] deals with HCoV-229E S protein (Human coronavirus 229E, UniProt P15423). Description: cell-based.
The test system of data set [20] is SARS-CoV PsV. Particulars: rhesus monkey, in vivo.
For data set [21] the following is noted: mouse, in vivo, 50 mg/kg.
The target of data set [22] is proteinase K (Parengyodontium album, UniProt P06873).
Chain of proteinase K (P06873 106-384): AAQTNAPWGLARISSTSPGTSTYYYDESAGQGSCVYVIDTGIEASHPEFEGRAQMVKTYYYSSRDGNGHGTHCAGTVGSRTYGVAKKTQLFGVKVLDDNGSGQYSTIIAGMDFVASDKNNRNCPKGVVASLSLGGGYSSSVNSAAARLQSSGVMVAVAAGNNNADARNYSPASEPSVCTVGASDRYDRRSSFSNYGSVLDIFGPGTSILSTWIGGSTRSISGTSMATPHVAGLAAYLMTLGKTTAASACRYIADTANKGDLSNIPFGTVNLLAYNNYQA
For data set [23], the system named is live HCoV-OC43. The note with it: 8 h.
Data set [24] deals with T1, SARS-CoV-2 S protein. Description: cell-based.
For data set [25], the system named is Pseudotyped SARS-CoV. The note with it: 48 h.
For data set [26], the system named is Pseudotyped MERS-CoV. Particulars: 48 h.
In data set [27] the test system is Pseudotyped MERS-CoV. The note with it: 48 h. This is another data set of the same source.
Data set [28] concerns Pseudotyped HCoV-NL63. Particulars: 48 h.
For data set [29], the system named is Pseudotyped SARS-CoV. Particulars: 48 h. This is another data set of the same source.
Data set [30] has as its system Pseudotyped SARS-CoV-2. Particulars: 48 h. The source holds these as a separate data set.
The test system of data set [31] is Pseudotyped HCoV-NL63. The note with it: 48 h. This is another data set of the same source.
The target in data set [32] is human immunoglobulin G (IgG) (human). Description: BLI. (BLI is a label-free optical method that tracks binding on a fibre tip over time.)
Data set [33] has as its system WIV1-CoV S protein. Type of data set: cell-based. The note with it: read-out: IC50 against Cell-Cell Fusion Mediated by S Proteins of CoVs.
In data set [34] the target is SARS-CoV-2 HR1P (Severe acute respiratory syndrome coronavirus 2, UniProt P0DTC2). Type of data set: physicochemical. Particulars: pH 7.2.
Data set [35] concerns HCoV-OC43. Type of data set: in vivo, ICR mice (newborn).
The conditions of data set [36]: in vivo; cited from earlier work.

Like-named read-outs stand apart in the source and are kept apart here. Positions of bridges follow the written chain, without caps; N, C: chain ends. No end group written: not given here.

With EK1 (peptide), in [1], the IC50 against pseudotyped SARS-CoV-2 infection of Caco-2 cells amounted to 0.59 µM and the IC50 against pseudotyped SARS-CoV-2 infection of Calu-3 cells is 0.253 µM.

As to “SLDQINVTFLDLEYEMKKLEEAIKKLEESYIDLKELGGSDCAWHLGELVWCT (disulfide 41-51) [EK1-L-IBP]”, it took 1.17 µM to reach half-maximal inhibition in [2] (IC50).

Regarding “DCAWHLGELVWCTSLDQINVTFLDLEYEMKKLEEAIKKLEESYIDLKEL (disulfide 2-12) [IBP-EK1]”, the IC50 (commonly the concentration needed to halve the response being measured) in data set [3] is 0.171 to 0.296 µM; in data set [4], 6.05 µM; in data set [7] it was 0.18 µM; in data set [8] it was 4.14 µM; in [10] it was 0.212 µM; in data set [2] it was 0.788 µM. The IC50 in data set [11] stood at 3.57 µM; in data set [13], 0.376 µM; in [14], 0.512 µM; in data set [15], 3.34 µM; in data set [17] it was 0.229 µM; in [18] it was 0.829 µM. In addition, the IC50 in data set [19] was determined as 0.478 µM; in [23], 0.744 µM; in data set [24], 0.325 µM. Also, in [5], the CC50 – broadly, the concentration giving 50% cytotoxicity – at 48 h was over 100 µM. The AUC (as a rule, the area under the concentration-time curve, a measure of exposure) in data set [6] was 2207.03 µg·h/mL; in data set [20] (iv, 10 mg/kg) it was 5228.98 µg·h/mL. For the same molecule, the Cmax – broadly, the maximum level reached in the sampled fluid or tissue – in data set [9] was found to be 51.7 µg/mL; in [20] (iv, 10 mg/kg), 116.09 µg/mL. Moreover, the time to peak (Tmax) – broadly, the time from dosing to the highest level – in [9] worked out at 2 h; in data set [20] (iv, 10 mg/kg), 2 h. The half-life (as a rule, how long it takes for the measured level to halve) in data set [9] was 37.7 h. The same molecule gave a level at 24 h in data set [9] of about 24 µg/mL. In addition, in [12], the “residual inhibitory activity against SARS-CoV-2 PsV after trypsin treatment” value is listed as “significantly better inhibitory activities than those of EK1”. In data set [16], the “selectivity index (SI = CC50/IC50)” value is “more than 100”. Further, the “half-life relative to that of EK1” value in [20] is “about 21 fold”. For the same molecule, the t1/2 in [20] (iv, 10 mg/kg) stood at 39.72 h. Moreover, in data set [21], the “ALT level in sera” value is “in the normal range”. Moreover, in data set [21], the “IBP-EK1-specific antibodies in sera (immunogenicity)” value is recorded as “no IBP-EK1-specific antibodies were detected”. In addition, in [21], the body weight changes result is listed as “weight changes similar to those of the PBS-treated group”. The “creatinine level in sera” value in [21] is on record as “in the normal range”. In addition, the “histopathology of lungs, livers and kidneys (H&E)” value in data set [21] was “no pathological abnormalities in their organs”. Besides, in data set [22], the “residual inhibitory activity against SARS-CoV-2 PsV after proteinase K treatment” value is “significantly better inhibitory activities than those of EK1”.

Take `CC(C)C[C@@H]1NC(=O)[C@H](Cc2c[nH]cn2)NC(=O)[C@H](Cc2c[nH]c3ccccc23)NC(=O)[C@H](C)NC(=O)[C@@H](NC(=O)[C@@H](N)CC(=O)O)CSSC[C@@H](C(=O)N[C@H](C(=O)O)[C@@H](C)O)NC(=O)[C@H](Cc2c[nH]c3ccccc23)NC(=O)[C@H](C(C)C)NC(=O)[C@H](CC(C)C)NC(=O)[C@H](CCC(=O)O)NC(=O)CNC1=O` [IBP]: the IC50 in [4], in data set [25], in data set [7], in data set [26], in [8] and in data set [10] was over 50 µM each time. In addition, the IC50 was over 100 µM in data set [2]; over 50 µM in data set [11]; over 50 µM in data set [13]; over 100 µM in [14]; over 50 µM in data set [15]; over 50 µM in data set [27]. Moreover, the IC50 in data set [28], in [17], in data set [29], in [18], in data set [19] and in [23] was over 50 µM each time. The IC50 in data set [30] and in data set [31] was over 50 µM each time.

As for “SLDQINVTFLDLEYEMKKLEEAIKKLEESYIDLKELDCAWHLGELVWCT (disulfide 38-48) [EK1-IBP]”, in data set [2], the IC50 turned out to be 1.18 µM.

For the molecule “human immunoglobulin G Fc-binding peptide (IBP)”, the Kd – broadly, the equilibrium constant for the complex coming apart – in data set [32] came out at 1.03 µM.

Molecule “DCAWHLGELVWCTGGSSLDQINVTFLDLEYEMKKLEEAIKKLEESYIDLKEL (disulfide 2-12) [IBP-L-EK1]” returned an IC50 in data set [2] of 0.806 µM.

IBP-EK1 (peptide): in data set [1], the IC50 against pseudotyped SARS-CoV-2 infection of Caco-2 cells came to 0.512 µM and the IC50 against pseudotyped SARS-CoV-2 infection of Calu-3 cells turned out to be 0.18 µM. In addition, in data set [32], the Kd came out at 0.217 µM.

In the case of `CC[C@H](C)[C@H](NC(=O)[C@H](C)NC(=O)[C@H](CCC(=O)O)NC(=O)[C@H](CCC(=O)O)NC(=O)[C@H](CC(C)C)NC(=O)[C@H](CCCCN)NC(=O)[C@H](CCCCN)NC(=O)[C@H](CCSC)NC(=O)[C@H](CCC(=O)O)NC(=O)[C@H](Cc1ccc(O)cc1)NC(=O)[C@H](CCC(=O)O)NC(=O)[C@H](CC(C)C)NC(=O)[C@H](CC(=O)O)NC(=O)[C@H](CC(C)C)NC(=O)[C@H](Cc1ccccc1)NC(=O)[C@@H](NC(=O)[C@@H](NC(=O)[C@H](CC(N)=O)NC(=O)[C@@H](NC(=O)[C@H](CCC(N)=O)NC(=O)[C@H](CC(=O)O)NC(=O)[C@H](CC(C)C)NC(=O)[C@@H](N)CO)[C@@H](C)CC)C(C)C)[C@@H](C)O)C(=O)N[C@@H](CCCCN)C(=O)N[C@@H](CCCCN)C(=O)N[C@@H](CC(C)C)C(=O)N[C@@H](CCC(=O)O)C(=O)N[C@@H](CCC(=O)O)C(=O)N[C@@H](CO)C(=O)N[C@@H](Cc1ccc(O)cc1)C(=O)N[C@H](C(=O)N[C@@H](CC(=O)O)C(=O)N[C@@H](CC(C)C)C(=O)N[C@@H](CCCCN)C(=O)N[C@@H](CCC(=O)O)C(=O)N[C@@H](CC(C)C)C(=O)O)[C@@H](C)CC` [EK1], the IC50 amounted to 6.99 µM in data set [4]; 0.253 µM in [7]; 7.59 µM in data set [8]; 0.588 µM in data set [33]; 0.791 µM in [2]; 3.61 µM in [11]. Further, the IC50 was 3.48 µM in [15] and 0.764 µM in data set [23]. The “Tm of complex with SARS-CoV-2 HR1P” value in [34] turned out to be 51.05 °C. Also, the “ex vivo inhibition of SARS-CoV PsV by serum (fold of its IC50)” value in data set [20] (iv, 10 mg/kg) is recorded as “below 450 fold”. This molecule also showed a t1/2 in [20] (iv, 10 mg/kg) of 1.77 h. Moreover, the “protection (survival), prophylactic” value in [35] (3-day-old suckling mice, 10 mg/kg intranasal single dose 1 h before HCoV-OC43 (100 TCID50) challenge) is 100%. For the same molecule, the “viral loads in mouse brain, therapeutic group” value in data set [35] (day 5 post challenge, 10 mg/kg intranasal 1 h after challenge, vs viral control) is on record as “significantly different from those of viral control group”. In data set [35] (day 5 post challenge, 10 mg/kg intranasal 1 h before challenge, relative RNA quantification vs viral control), the “viral loads in mouse brain, prophylactic group” value is “very low”. In addition, the “t1/2 (reported value)” value in data set [36] is on record as 1.8 h.

The record behind these values is PMC10526447 (Biomolecules, 2023).
